Assay results as given in US8834841B2, “Imaging agents” (priority 2005, dated 2014).

Columns and labels:
SKOV3 ovarian carcinoma = test: in vitro amino acid uptake, SKOV3 cells; format: cell-based, human
Source text: The inventive compounds have been evaluated in vitro for tumor binding specificity (i.e. uptake cells) using a variety of tumor cell lines available in the art, along with reference compounds such as Me-AIB and BCH. Detailed description of these assays can be found in Martarello et al. (2002) Journal of Medicinal Chemistry, 45:2250-2259 and McConathy et al. (2003) Nuclear Medicine and Biology, 30:477-490. These, so called “amino acid uptake studies” are typically carried out with radiolabeled compounds in at least five phenotypically different human tumor cell lines (e.g. A549 lung carcinoma, MB468 breast carcinoma, DU145 prostate carcinoma, SKOV3 ovarian carcinoma, and U87 glial blastoma). These tumor cell lines can be grown either in vitro or in vivo with severe combined immunodeficiency (SCID) mice as a host. The fore-mentioned tumor cell lines are available at the Winship Cancer Institute of Emory University.
For the in vitro amino acid uptake studies, all cells can be grown to monolayer confluency in T-175 culture flasks [Corning, Corning, N.Y.] (approx. 1×10^8 cells/flask) in Dulbecco's Modified Eagle's Medium (DMEM) [Sigma, St. Louis, Mo.] in a humidified incubator (37° C., 5% CO2/95% air). Media are supplemented with 10% fetal calf serum [Hyclone, Logan, Utah], and antibiotics (10,000 U/ml penicillin and 10 mg/ml streptomycin) (Sigma, St. Louis, Mo.). For tissue culture passage, monolayer cells are detached by gentle trypsinization, resuspended in complete media, and split 1:10 into new T-flasks. […]
In the in vitro studies the uptake rate of each amino acid compound is measured in each tumor line, as well as the dominant transport mechanisms of each tumor cell line. After trypsinization, cells are resuspended in serum-free media, then counted on a hemocytometer, with viability assessed through Trypan blue staining. […] The vials are placed in a Cobra-II gamma counter (Packard, Meriden, Conn.), with the activity per cell number determined. […] Saline washes are performed as described above, and the filtered cells radioactivity determined on the gamma counter. […]

[1] = test system: A549 Lung Tumor Cells Implanted SC in SCID Mice; test: tissue distribution, A549 tumor-bearing SCID mice; format: in vivo
Method: For the in vitro amino acid uptake studies, all cells can be grown to monolayer confluency in T-175 culture flasks [Corning, Corning, N.Y.] (approx. 1×10^8 cells/flask) in Dulbecco's Modified Eagle's Medium (DMEM) [Sigma, St. Louis, Mo.] in a humidified incubator (37° C., 5% CO2/95% air). Media are supplemented with 10% fetal calf serum [Hyclone, Logan, Utah], and antibiotics (10,000 U/ml penicillin and 10 mg/ml streptomycin) (Sigma, St. Louis, Mo.). For tissue culture passage, monolayer cells are detached by gentle trypsinization, resuspended in complete media, and split 1:10 into new T-flasks. Cultures are passaged weekly, and fed fresh media every 2 to 3 days. To initiate tumor growth in SCID mice, 1×10^6 cells are injected s.c. bilaterally into the flanks (inguinal region) of the recipient animals using a 1 ml syringe with a 27 gauge needle. Ex vivo experiments can be performed with animals containing tumors weighing between 500 mg and 1 g, as estimated by caliper measurement (tumor weight=(π/6)*abc, where a, b and c are the tumor length, width and height, respectively). The compounds of the invention are further evaluated for their tumor specificity and selectivity in tumor-bearing animal models. One can evaluate and compare the transport, accumulation and tissue distribution of each compound in these in vivo animal studies. Tissue distribution of the compounds is measured in SCID mice (average weight, 20-25 g) bearing human tumors as follows. The candidate radioligands (20 uCi in 0.4 ml 0.9% NaCl) are injected into the tail vein of tumor-bearing mice. […] Tissues (blood, heart, liver, lungs, kidneys, bone, thyroid, muscle, brain and tumor) are excised, rinsed in saline, and blotted dry. The tissues are weighed, placed into 12×75 mm glass vials, the radioactivity determined with a gamma counter, and the percent dose/gram calculated. Total activities of blood and muscle are calculated by assuming that they account for 7% and 40% of the total body mass, respectively.

## NC1(C(=O)O)CCC1[18F] [Anti-R,S 2-[^18F]FACBC, (R,S) anti-1-amino-2-[^18F]fluorocyclobutyl-1-carboxylic acid]
SKOV3 ovarian carcinoma; SKOV3, No inhibitor
  % Dose Uptake/0.5e6 Cells: 2.16 +/− 0.14 % Dose Uptake/0.5e6 Cells
SKOV3 ovarian carcinoma; SKOV3, inhibitor BCH (10 mM)
  % Dose Uptake/0.5e6 Cells: 1.74 +/− 0.01 % Dose Uptake/0.5e6 Cells
SKOV3 ovarian carcinoma; SKOV3, inhibitor MeAlB (10 mM)
  % Dose Uptake/0.5e6 Cells: 0.75 +/− 0.01 % Dose Uptake/0.5e6 Cells
[1]; 15 Minutes
  % Dose/g blood: 3.39 % Dose/g
  % Dose/g bone: 2.06 % Dose/g
  % Dose/g brain: 0.26 % Dose/g
  % Dose/g heart: 2.70 % Dose/g
  % Dose/g kidney: 10.11 % Dose/g
  % Dose/g liver: 3.15 % Dose/g
  % Dose/g lung: 4.23 % Dose/g
  % Dose/g muscle: 1.38 % Dose/g
  % Dose/g pancreas: 48.45 % Dose/g
  % Dose/g spleen: 7.90 % Dose/g
  % Dose/g tumor: 5.11 % Dose/g
[1]; 30 Minutes
  % Dose/g blood: 2.42 % Dose/g
  % Dose/g bone: 1.63 % Dose/g
  % Dose/g brain: 0.25 % Dose/g
  % Dose/g heart: 2.23 % Dose/g
  % Dose/g kidney: 5.47 % Dose/g
  % Dose/g liver: 2.70 % Dose/g
  % Dose/g lung: 3.03 % Dose/g
  % Dose/g muscle: 1.43 % Dose/g
  % Dose/g pancreas: 44.17 % Dose/g
  % Dose/g spleen: 5.02 % Dose/g
  % Dose/g tumor: 4.28 % Dose/g
[1]; 60 Minutes
  % Dose/g blood: 1.08 % Dose/g
  % Dose/g bone: 1.01 % Dose/g
  % Dose/g brain: 0.16 % Dose/g
  % Dose/g heart: 1.41 % Dose/g
  % Dose/g kidney: 2.24 % Dose/g
  % Dose/g liver: 1.46 % Dose/g
  % Dose/g lung: 1.40 % Dose/g
  % Dose/g muscle: 0.90 % Dose/g
  % Dose/g pancreas: 20.63 % Dose/g
  % Dose/g spleen: 2.85 % Dose/g
  % Dose/g tumor: 3.04 % Dose/g
[1]; 120 Minutes
  % Dose/g blood: 0.40 % Dose/g
  % Dose/g bone: 0.62 % Dose/g
  % Dose/g brain: 0.14 % Dose/g
  % Dose/g heart: 0.85 % Dose/g
  % Dose/g kidney: 1.02 % Dose/g
  % Dose/g liver: 0.58 % Dose/g
  % Dose/g lung: 0.56 % Dose/g
  % Dose/g muscle: 0.77 % Dose/g
  % Dose/g pancreas: 9.80 % Dose/g
  % Dose/g spleen: 1.48 % Dose/g
  % Dose/g tumor: 2.30 % Dose/g
